Results from publication PMC4579270, “Identification and Characterization of an Irreversible Inhibitor of CDK2” (Chemistry & Biology, 2015).

Legend:
Assay in all cases: Dundee protein kinase screen
Type in all cases: biochemical
MSK1 = MSK1 (Homo sapiens, UniProt O75582); details: MSK1, 1µM; read-out: %Remaining activity at 1µM NU6300
Protocol: (§1) Prior to determining its cellular activity, we carried out a screen to assess its selectivity against a panel of 131 protein kinases under conditions that would not distinguish between a reversible or irreversible mode of action. […] These 13 kinases and 29 additional kinases, selected for their known sensitivity to other inhibitors within the purine series, were then tested in a modified screening format in which the assay was repeated following a 4-hr pre-incubation (Table S3B). […] However, conformational flexibility around the active site may promote such an interaction with a residue from another part of the structure ([Martin et al., 2012]).
(§2) Table S3, Related to Figure 4. NCL-0006300 protein kinase selectivity. (A) NU6300 was tested at a single concentration of 1µM against 131 protein kinases present in a Dundee protein kinase screen (Bain et al., 2007). Values given are % activity remaining and are the average of duplicate measurements: 0-25% (red), 26-50% (yellow), 51-80% […]
(§3) (black) and above 81% (green). […]

PKBβ = PKBβ (Homo sapiens, UniProt P31751); details: read-out: %Remaining activity at 1µM NU6300
Protocol: as §1, §2, §3

TTK = biological target: T1, TTK (Homo sapiens, UniProt P33981); details: read-out: %Remaining activity at 1µM NU6300
T1 sequence (P33981 1-857): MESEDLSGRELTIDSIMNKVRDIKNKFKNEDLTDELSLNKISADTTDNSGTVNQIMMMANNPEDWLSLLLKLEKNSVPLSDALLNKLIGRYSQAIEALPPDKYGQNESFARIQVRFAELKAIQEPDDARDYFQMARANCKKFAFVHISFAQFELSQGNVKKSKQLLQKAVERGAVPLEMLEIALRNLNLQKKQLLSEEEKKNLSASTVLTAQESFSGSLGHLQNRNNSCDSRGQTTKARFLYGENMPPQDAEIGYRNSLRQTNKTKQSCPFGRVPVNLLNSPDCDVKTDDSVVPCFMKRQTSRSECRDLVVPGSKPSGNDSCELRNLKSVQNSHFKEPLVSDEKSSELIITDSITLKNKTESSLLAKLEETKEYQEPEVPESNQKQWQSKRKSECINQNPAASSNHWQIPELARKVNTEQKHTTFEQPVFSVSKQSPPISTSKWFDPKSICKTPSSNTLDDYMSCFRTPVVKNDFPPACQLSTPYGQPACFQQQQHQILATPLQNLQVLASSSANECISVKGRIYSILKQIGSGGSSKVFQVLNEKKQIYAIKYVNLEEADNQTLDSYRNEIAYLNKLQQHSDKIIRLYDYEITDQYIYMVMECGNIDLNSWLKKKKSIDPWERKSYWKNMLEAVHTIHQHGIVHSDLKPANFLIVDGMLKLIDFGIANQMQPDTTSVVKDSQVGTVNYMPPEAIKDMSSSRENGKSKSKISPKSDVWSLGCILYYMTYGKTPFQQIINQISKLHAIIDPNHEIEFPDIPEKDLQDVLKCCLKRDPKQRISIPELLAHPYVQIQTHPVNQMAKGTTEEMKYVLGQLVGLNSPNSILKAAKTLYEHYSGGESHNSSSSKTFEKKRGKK
Protocol: as §1, §2, §3

PKD1 = PKD1 (Homo sapiens, UniProt Q15139); details: PKD1, 1µM; read-out: %Remaining activity at 1µM NU6300
Protocol: as §1, §2, §3

TLK1 = TLK1 (Homo sapiens, UniProt Q9UKI8); details: TLK1, 1µM; read-out: %Remaining activity at 1µM NU6300
Protocol: as §1, §2, §3

PAK6 = PAK6 (Homo sapiens, UniProt Q9NQU5); details: PAK6, 1µM; read-out: %Remaining activity at 1µM NU6300
Protocol: as §1, §2, §3

TESK1 = TESK1 (Homo sapiens, UniProt Q15569); details: TESK1, 1µM; read-out: %Remaining activity at 1µM NU6300
Protocol: as §1, §2, §3

MST4 = MST4 (Homo sapiens, UniProt Q9P289); details: MST4, 1µM; read-out: %Remaining activity at 1µM NU6300
Protocol: as §1, §2, §3

ROCK 2 = ROCK 2 (Homo sapiens, UniProt O75116); details: ROCK 2, 1µM; read-out: %Remaining activity at 1µM NU6300
Protocol: as §1, §2, §3

PKCα = PKCα (Homo sapiens, UniProt P17252); details: read-out: %Remaining activity at 1µM NU6300
Protocol: as §1, §2, §3

Chain of TLK1 (Q9UKI8 whole entry): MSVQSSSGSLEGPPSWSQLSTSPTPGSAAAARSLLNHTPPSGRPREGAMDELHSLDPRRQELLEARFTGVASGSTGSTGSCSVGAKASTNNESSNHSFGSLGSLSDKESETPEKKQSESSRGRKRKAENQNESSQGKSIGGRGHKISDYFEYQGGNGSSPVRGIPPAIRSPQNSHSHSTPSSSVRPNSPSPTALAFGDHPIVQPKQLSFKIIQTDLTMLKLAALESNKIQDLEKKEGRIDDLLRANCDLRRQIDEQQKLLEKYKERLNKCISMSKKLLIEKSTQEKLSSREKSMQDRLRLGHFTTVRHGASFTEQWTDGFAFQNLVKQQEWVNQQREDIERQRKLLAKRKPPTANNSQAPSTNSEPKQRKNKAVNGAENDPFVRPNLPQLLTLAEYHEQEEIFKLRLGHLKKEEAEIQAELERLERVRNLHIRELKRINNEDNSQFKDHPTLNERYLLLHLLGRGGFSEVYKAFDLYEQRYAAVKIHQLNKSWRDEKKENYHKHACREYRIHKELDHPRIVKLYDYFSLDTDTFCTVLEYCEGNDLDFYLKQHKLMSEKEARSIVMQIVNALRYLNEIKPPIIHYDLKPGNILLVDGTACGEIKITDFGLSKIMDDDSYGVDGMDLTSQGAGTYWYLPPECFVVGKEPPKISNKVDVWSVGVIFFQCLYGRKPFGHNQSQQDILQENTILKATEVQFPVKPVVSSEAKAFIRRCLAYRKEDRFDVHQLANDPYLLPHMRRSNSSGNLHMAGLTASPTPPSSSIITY
Chain of PKBβ (P31751 whole entry): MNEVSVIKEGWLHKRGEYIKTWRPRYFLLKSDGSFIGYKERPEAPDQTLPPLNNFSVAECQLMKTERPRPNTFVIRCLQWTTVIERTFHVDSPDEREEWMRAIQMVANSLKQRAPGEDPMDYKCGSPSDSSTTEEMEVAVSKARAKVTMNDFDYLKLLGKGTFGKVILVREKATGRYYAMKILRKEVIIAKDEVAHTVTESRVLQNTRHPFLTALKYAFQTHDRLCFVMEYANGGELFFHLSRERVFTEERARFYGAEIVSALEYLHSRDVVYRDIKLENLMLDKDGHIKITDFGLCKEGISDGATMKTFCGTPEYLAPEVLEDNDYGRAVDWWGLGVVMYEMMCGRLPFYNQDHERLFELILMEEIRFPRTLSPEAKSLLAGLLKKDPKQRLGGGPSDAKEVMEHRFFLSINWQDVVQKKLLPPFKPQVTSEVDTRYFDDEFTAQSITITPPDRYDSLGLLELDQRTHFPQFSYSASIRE
Chain of PAK6 (Q9NQU5 whole entry): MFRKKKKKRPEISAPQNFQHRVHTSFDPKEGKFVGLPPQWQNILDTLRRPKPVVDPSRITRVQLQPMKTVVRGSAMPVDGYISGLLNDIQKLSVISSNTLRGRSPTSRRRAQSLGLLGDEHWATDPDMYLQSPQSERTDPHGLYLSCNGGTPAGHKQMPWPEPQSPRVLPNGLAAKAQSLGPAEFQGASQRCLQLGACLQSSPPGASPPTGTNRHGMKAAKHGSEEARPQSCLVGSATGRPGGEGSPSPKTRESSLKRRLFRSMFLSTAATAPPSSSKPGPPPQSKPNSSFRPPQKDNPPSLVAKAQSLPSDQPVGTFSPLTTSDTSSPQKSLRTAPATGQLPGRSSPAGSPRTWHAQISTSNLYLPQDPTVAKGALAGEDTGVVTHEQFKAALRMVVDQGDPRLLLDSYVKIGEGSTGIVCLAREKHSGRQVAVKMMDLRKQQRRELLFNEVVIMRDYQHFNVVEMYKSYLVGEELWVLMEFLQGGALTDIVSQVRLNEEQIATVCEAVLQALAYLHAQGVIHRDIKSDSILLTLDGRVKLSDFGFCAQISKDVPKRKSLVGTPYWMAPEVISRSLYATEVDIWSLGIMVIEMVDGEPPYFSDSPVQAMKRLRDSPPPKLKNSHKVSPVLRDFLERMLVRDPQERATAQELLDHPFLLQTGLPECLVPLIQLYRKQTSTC
Chain of MST4 (Q9P289 whole entry): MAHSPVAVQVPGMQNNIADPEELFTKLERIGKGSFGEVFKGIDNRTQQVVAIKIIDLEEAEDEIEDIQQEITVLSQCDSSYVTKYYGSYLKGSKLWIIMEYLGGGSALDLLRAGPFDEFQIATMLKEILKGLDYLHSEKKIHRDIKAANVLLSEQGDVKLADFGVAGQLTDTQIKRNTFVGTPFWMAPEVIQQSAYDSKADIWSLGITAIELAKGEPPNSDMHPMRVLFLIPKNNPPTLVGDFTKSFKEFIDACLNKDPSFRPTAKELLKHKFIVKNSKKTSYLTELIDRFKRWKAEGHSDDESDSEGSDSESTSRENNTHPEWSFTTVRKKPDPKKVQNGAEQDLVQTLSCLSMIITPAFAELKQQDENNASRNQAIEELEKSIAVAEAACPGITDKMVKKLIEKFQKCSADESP
Chain of PKD1 (Q15139 whole entry): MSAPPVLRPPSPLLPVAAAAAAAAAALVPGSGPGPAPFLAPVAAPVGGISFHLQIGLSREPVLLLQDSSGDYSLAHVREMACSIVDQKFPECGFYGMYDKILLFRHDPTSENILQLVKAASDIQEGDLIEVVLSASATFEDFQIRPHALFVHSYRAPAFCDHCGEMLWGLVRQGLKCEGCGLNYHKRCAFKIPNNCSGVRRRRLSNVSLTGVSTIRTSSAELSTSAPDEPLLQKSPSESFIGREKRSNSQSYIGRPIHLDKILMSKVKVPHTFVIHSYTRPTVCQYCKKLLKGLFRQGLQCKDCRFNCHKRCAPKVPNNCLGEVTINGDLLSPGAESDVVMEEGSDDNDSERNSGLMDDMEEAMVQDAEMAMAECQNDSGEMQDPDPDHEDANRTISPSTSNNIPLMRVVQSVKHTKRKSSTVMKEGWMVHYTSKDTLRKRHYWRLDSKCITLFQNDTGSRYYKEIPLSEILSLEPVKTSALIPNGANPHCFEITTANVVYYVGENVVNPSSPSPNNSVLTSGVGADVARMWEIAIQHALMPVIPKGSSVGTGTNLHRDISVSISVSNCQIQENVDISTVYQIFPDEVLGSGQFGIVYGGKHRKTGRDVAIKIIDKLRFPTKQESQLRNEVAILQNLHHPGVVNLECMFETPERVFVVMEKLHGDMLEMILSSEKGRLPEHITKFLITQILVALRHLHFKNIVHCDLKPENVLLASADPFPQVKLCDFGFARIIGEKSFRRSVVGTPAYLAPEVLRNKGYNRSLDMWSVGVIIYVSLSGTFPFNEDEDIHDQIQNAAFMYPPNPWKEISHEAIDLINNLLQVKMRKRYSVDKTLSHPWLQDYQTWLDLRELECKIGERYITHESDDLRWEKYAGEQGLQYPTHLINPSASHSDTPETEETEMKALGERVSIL
Chain of TESK1 (Q15569 whole entry): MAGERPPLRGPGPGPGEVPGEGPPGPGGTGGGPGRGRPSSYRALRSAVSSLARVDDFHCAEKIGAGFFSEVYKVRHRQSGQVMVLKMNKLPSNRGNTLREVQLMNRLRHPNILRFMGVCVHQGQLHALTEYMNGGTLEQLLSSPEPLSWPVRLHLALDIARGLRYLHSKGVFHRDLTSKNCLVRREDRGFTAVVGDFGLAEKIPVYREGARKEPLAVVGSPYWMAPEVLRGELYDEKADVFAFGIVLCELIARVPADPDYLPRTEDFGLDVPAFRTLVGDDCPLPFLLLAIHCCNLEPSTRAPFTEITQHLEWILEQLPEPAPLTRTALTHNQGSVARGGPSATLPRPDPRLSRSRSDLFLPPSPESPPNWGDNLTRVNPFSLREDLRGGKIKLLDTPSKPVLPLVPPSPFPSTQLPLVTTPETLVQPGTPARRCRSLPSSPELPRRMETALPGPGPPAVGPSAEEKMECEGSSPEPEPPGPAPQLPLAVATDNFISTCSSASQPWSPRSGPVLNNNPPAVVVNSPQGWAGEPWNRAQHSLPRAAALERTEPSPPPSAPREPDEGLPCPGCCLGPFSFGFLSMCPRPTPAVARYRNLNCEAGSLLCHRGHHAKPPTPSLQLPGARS

With `C=CS(=O)(=O)c1ccc(Nc2nc(OCC3CCCCC3)c3nc[nH]c3n2)cc1` [NU6300, 6-(cyclohexylmethoxy)-N-(4-(vinylsulfonyl)phenyl)-9H-purin-2-amine] as the compound, how does the remaining activity at 1 µM (MSK1) read?
The remaining activity at 1 µM was 69%.

And the remaining activity at 1 µM (PKBβ)?
Its remaining activity at 1 µM is 89%.

What about the remaining activity at 1 µM (TTK) of the same compound?
Its remaining activity at 1 µM is 29%.

What about the remaining activity at 1 µM (PKD1) of the same compound?
The remaining activity at 1 µM was 55%.

And the remaining activity at 1 µM (TLK1)?
Its remaining activity at 1 µM is 52%.

And the remaining activity at 1 µM (PAK6)?
Its remaining activity at 1 µM is 73%.

And the remaining activity at 1 µM (TESK1)?
Its remaining activity at 1 µM is 78%.

And the remaining activity at 1 µM (MST4)?
Its remaining activity at 1 µM is 39%.

What about the remaining activity at 1 µM (ROCK 2) of the same compound?
Its remaining activity at 1 µM is 25%.

And the remaining activity at 1 µM (PKCα)?
Its remaining activity at 1 µM is 86%.
